Values belong to the compound of their own block, whether it stands above or below them. Peptide text beside a SMILES is read from it. * marks the point of attachment. Cbz = O=C(OCc1ccccc1)*
Experiments:
[1] = biological target: T1, hATE1 (Homo sapiens, UniProt O95260); test: Differential scanning fluorimetry of hATE1 with or without ligands; settings: DSF; for change of melting temperature of hATE1 in the presence of ligand: absence of tRNA, result in words
[2] = test system: RGS4; test: Immunoblotting, proteasomal flux; settings: MG132 10 μM, 6 h
[3] = biological target: T1, hATE1; test: MST direct binding assay, hATE1-peptide interaction; settings: with vs without A + T arms
[4] = test system: human ATE1; test: Intact protein analysis of purified ATE1; settings: purified recombinant ATE1, GST-tag removed, LC-MS
[5] = test system: RGS4; test: Immunocytochemistry, RGS4 level in ATE1 deficient HeLa cells; settings: ATE1-KO HeLa cells

T1 sequence (O95260 1-518 isoform O95260-2): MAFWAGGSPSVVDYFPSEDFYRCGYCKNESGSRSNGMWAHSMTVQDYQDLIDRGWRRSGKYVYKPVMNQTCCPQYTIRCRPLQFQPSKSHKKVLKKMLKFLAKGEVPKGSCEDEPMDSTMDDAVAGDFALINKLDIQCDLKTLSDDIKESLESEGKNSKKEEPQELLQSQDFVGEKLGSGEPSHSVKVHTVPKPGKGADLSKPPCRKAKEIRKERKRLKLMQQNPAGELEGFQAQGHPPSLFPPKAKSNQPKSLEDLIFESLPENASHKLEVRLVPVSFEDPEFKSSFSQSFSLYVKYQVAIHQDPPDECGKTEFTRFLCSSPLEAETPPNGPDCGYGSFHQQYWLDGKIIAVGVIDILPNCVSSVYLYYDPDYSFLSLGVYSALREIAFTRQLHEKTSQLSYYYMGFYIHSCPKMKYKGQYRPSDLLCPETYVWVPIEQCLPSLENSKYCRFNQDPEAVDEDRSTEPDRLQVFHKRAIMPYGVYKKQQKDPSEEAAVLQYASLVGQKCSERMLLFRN

Compound: O=C(O)CN(CCN(CC(=O)O)CC(=O)O)CC(=O)O [EDTA]
- thermal stability decrease of ATE1 on EDTA treatment ([1]; increasing amount of EDTA, duplicate measurements): ~ 7 °C

Compound: CC(C)C[C@@H](C=O)NC(=O)[C@H](CC(C)C)NC(=O)[C@H](CC(C)C)NC(=O)OCc1ccccc1 [MG132] (Cbz-Leu-Leu-Leu-aldehyde)
- RGS4 accumulation post-MG132 ([2]; ATE1-KO HeLa cells): no RGS4 accumulation
- normalized P.F. index (fold change), RGS4 accumulation ([2]; WT ATE1 HeLa cells): ~ 29 fold change

Compound: RDDIAA-FAM
- fold enhancement of binding affinity by tRNA-mimetic (A + T arms) [3]: 15 -fold

Compound: WT hATE1: human arginyl-tRNA-protein transferase 1 isoform 2, wild type, recombinant
- small arginylated fraction of ATE1 [4]: < 3 % of total
- RGS4 proteasomal flux / RGS4 stabilization ([2]; ATE1-KO HeLa cells expressing the ATE1 construct): restored the P.F. index
- RGS4 level by immunostaining [5]: but not in those transfected with WT ATE1

The remaining lines, values ahead:

- change of melting temperature of hATE1 in the presence of ligand [1]: no change was observed
Compound: N=C(N)NCCC[C@H](N)C(=O)O [free arginine, arginine]

- change of melting temperature of hATE1 in the presence of ligand [1]: no change was observed
Compound: NC(=O)CC[C@H](N)C(N)=O [glutamine amide]
